Experimental data as given in patent US20230271142A1, “METHODS OF PREPARING SOLID PARTICULATE MATERIALS” (MICROPORE TECHNOLOGIES LIMITED, priority 2020, published 2023).

Assay: Particle size distribution of atorvastatin particles produced via LDC (laser diffraction)
Assay type: physicochemical
Procedure: 0.6 g of Atorvastatin was dissolved in 10 ml methanol in a beaker at room temperature to make up the organic phase. 0.5% HPMC (Mn 10,000) in DI water was used as the aqueous phase. The LDC was configured with a membrane with 10 μm pores, spaced 200 μm apart in a square grid, in a ring. The stirrer speed was set at […] (1750 rpm), and the organic phase injection rate set at 10 ml/min. The line was primed with organic phase and the CP was poured into the stirred cell. Addition was started and ended when 3 ml of DP was injected. The solution was left to stir until precipitation was visible. The crystals were analyzed via microscopy and Laser Diffraction (Beckmann Coulter LS-230).

[1] = 10 μm pores, methanol solution into 0.5% HPMC water

CC(C)c1c(C(=O)Nc2ccccc2)c(-c2ccccc2)c(-c2ccc(F)cc2)n1CC[C@@H](O)C[C@@H](O)CC(=O)O [Atorvastatin]
Span: 1.66
Volume Mean (10 μm pores): 10.24 μm
D10 [1]: 4.38 μm
D50 [1]: 8.78 μm
D90 [1]: 18.92 μm
